In patent US8338435B2, “Substituted pyrido(3,2-D) pyrimidines and pharmaceutical compositions for treating viral infections” (Gilead Sciences, Inc., priority 2006, dated 2012):
Like-named read-outs stand apart in the source and are kept apart here.

Key:
HCV replicon = assay: Anti-HCV replicon assay, EC50 (luciferase luminescence); format: cell-based; details: Hepatitis C virus
Method: (§1) The anti-HCV activity of certain pyrido[3,2-d]pyrimidine derivatives of this invention was tested in a human hepatoma Huh-7 cell line harbouring a HCV replicon. The assay comprised the following steps:
(§2) Step 1: Compound Preparation and Serial Dilution
(§3) • 1. for water soluble pyrido[3,2-d]pyrimidine derivatives, a volume of 500 μL of solution in cell media (DMEM, 10% FBS, P/S, L-Glutamine) was prepared with a concentration being twice the concentration of the starting final serial dilution concentration. A volume of 150 μL of the solution was added to the pre-specified wells in column 1 of a 96-well cell culture plate (PerkinElmer, white plate, cat. #6005181, for EC50 assay; black plate, cat. #6005182 for CC50 assay). The rest of the plate, columns 2-12, was filled with 100 μL of cell media. The plate was then placed on a Precision 2000 Workstation to start the serial dilution. Compounds were diluted three times each step from column 1 to column 10. Column 11 was used as a blank control (no compound added). • 2. for pyrido[3,2-d]pyrimidine derivatives requiring DMSO to dissolve, serial dilution is performed in 50% DMSO in a 384-well plate. A solution containing a compound at 100-fold concentration of the starting final serial dilution concentration was prepared in 50% DMSO and added to the pre-specified wells in column 1 of a polypropylene 384-well plate. The plate was then placed on a Precision 2000 Workstation to start the serial dilution. After the serial dilution, a volume of 2 μL of the solution was transferred from the 384-well plate to a 96-well cell culture plate containing 100 μL of cell media on a Biomek FX Workstation. The DMSO concentration in the final assay condition was 0.5% after cells are added to the plate and the total volume in each well is brought to 200 μL. Step 2: to each well of the serial dilution plate prepared above, 100 μL of cell media containing 6000 suspended Huh-7 HCV replicon cells was added with a Multidrop workstation. The plates were incubated for 3 days at 37° C. with 5% CO2. Step 3: Detection: • a) for the EC50 assay, the media in a 96-well cell culture plate was aspirated with a Biotek EL405 plate-washer. A volume of 200 μL of a solution containing a 1:1 mixture of cell-lysis buffer (Promega, Luciferase Cell Culture Lysis 5× Reagent, cat. #E1531) and luciferase substrate solution (Promega, Luciferase Assay, cat. # E4550) was added to each well of the plate with Multidrop. The plate was incubated for 30 minutes at room temperature before the luminescence signal was measured with a TopCount plate-reader. • b) for the CC50 assay, a volume of 100 μL of pre-mixed CellTiter-Glo (Promega, cat. # G7572) solution is added directly to the cell culture in each well of the plate and the luminescence signal is measured with a TopCount plate-reader after 10 minutes of incubation at room temperature.
(§4) Results in the table below are expressed by the following data: • the 50% cytostatic concentration (CC50). i.e. the concentration that results in 50% inhibition of cell growth, and • the 50% effective concentration (EC50), i.e. the concentration that protects 50% of the cell monolayer from virus-induced cythopathic effect.

[1] = CC50 assay (CellTiter-Glo) in the replicon cells; format: cell-based; details: human, Huh-7 HCV replicon cells, 3 days incubation, 50% inhibition of cell growth
Method: as §1, §2, §3, §4

[2] = 72 h, human hepatoma Huh-7 cell line harbouring a HCV replicon, 3 days incubation, luciferase readout, read-out: EC50

Structure (SMILES)	EC50 (HCV replicon; [2]) [nM]	CC50 at 3 days [1] [nM]	EC50 (HCV replicon; Huh-7, 72 h) [nM]
CCCc1nc(N)nc2ccc(-c3ccc(F)cc3)nc12 [Example 2, 6-(4-fluorophenyl)-4-n-propyl-pyrido[3,2-d]pyrimidin-2-yl-amine]	< 300	> 20000	
CCCc1nc(N)nc2ccc(-c3ccc(NC(C)=O)cc3)nc12 [Example 3, N-[4-(2-amino-4-n-propyl-pyrido[3,2-d]pyrimidin-6-yl)-phenyl]-acetamide]	300 to 1000	> 20000	
CCc1nc(N)nc2ccc(-c3ccc(F)cc3)nc12 [Example 5, 4-ethyl-6-(4-fluoro-phenyl)-pyrido[3,2-d]pyrimidin-2-ylamine]	< 300	< 10000	
CC(C)Cc1nc(N)nc2ccc(-c3ccc(F)cc3)nc12 [Example 6, 6-(4-fluorophenyl)-4-isobutyl-pyrido[3,2-d]pyrimidin-2-ylamine]	< 300	> 20000	
C=CCCc1nc(N)nc2ccc(-c3ccc(F)cc3)nc12 [Example 7, 4-but-3-enyl-6-(4-fluorophenyl)-pyrido[3,2-d]pyrimidin-2-ylamine]		> 20000	< 300
CCc1nc(N)nc2ccc(-c3ccc(N4CCCC4=O)cc3)nc12 [Example 8, 1-[4-(2-amino-4-ethyl-pyrido[3,2-d]pyrimidin-6-yl)-phenyl]-pyrrolidin-2-one]	< 300	> 20000	
CCc1nc(N)nc2ccc(-c3cnc(N)cn3)nc12 [Example 9, 6-(5-Amino-pyrazin-2-yl)-4-ethyl-pyrido[3,2-d]pyrimidin-2-ylamine]	300 to 1000	< 10000	
Nc1nc(CCC2OCCCO2)c2nc(-c3ccc(F)cc3)ccc2n1 [Example 10, 4-(2-[1,3]dioxan-2-yl-ethyl)-6-(4-fluoro-phenyl)-pyrido[3,2-d]pyrimidin-2-ylamine]		> 20000	300 to 1000
Cc1nc(N)nc2ccc(-c3ccc(F)cc3)nc12 [Example 11, 4-methyl-6-(4-fluorophenyl)-pyrido[3,2-d]pyrimidin-2-ylamine]	< 300	< 10000	
CC(C)c1nc(N)nc2ccc(-c3ccc(F)cc3)nc12 [Example 12, 6-(4-fluorophenyl)-4-isopropyl-pyrido[3,2-d]pyrimidin-2-ylamine]	< 300	> 20000	
Nc1nc(C2CC2)c2nc(-c3ccc(F)cc3)ccc2n1 [Example 13, 4-Cyclopropyl-6-(4-fluoro-phenyl)-pyrido[3,2-d]pyrimidin-2-ylamine]	< 300	10000 to 20000	
Nc1nc(C2CC2)c2nc(-c3ccc(N4CCCC4=O)cc3)ccc2n1 [Example 14, 1-[4-(2-amino-4-cyclopropyl-pyrido[3,2-d]pyrimidin-6-yl)-phenyl]-pyrrolidin-2-one]	< 300	10000 to 20000	
